Data reported in patent US6410578B1, “Benzazole compounds and their use” (Novartis Animal Health US, Inc., priority 1998, dated 2002).

Experiments:
[1] = test system: Boophilus microplus Biarra (larvae); test: Arena test for vermin-repellent substances, Example A; conditions: in vitro arena test, ca. 60 to 100 larvae per well; for duration of repellent/deterrent action compared with DEET: DEET as standard; for repellent/deterrent action: evaluation of video images
Method: (§1) This method is carried out in titre plates having 6 wells with a cross-section of 5 cm each, using a computer-supported video system. Each well of the titre plate is lined with a circular filter paper or another suitable carrier material. The substance of formula I to be tested is dissolved in methanol, acetonitrile or another suitable solvent, with ultrasound treatment and heating being employed for poorly-soluble substances. In an amount of 1 to 100 mg/cm^2, the dissolved test substance is placed in the centre of the filter paper on a quadrant or circular area of ca. 2.4 cm^2 radius. 4 of the 6 wells are filled with different test substances or with the same test substance in different dilutions (e.g. 1, 3.2, 5, 10 and 20 mg/cm^2). The 5th well is treated with DEET (N,N-diethyl-m-toluamide) as standard substance. The 6th well is filled with the pure solvent and serves as a control. 60 to 100 larvae or 25 to 50 nymphs or 10 to 25 adults of the parasite to be tested, e.g. ticks, are added to each filter paper, and the system is covered with a pane of glass and positioned under a video camera.
(§2) At intervals of 5 seconds, the video camera takes individual pictures of all 6 wells. For a qualitative evaluation, these images are observed in a time-lapse as a continuous film, optically following the movements of the parasites on the filter paper and comparing them with the movements in the control well no. 6 or with the standard in the 5th well. A qualitative observation is thus made as to whether the test parasites move evenly over the whole surface of the filter paper and ignore the test substance, or whether and over what period they avoid the treated zone, and what influence the dilution of the test substance has on the behaviour of the test parasites. In this way, neutral and repellent substances are determined. At the same time, the duration of activity of the test substance is determined and compared with that of the standard. By plotting all the images for each individual well over one another, different areas of density are obtained. This represents the frequency at which the parasites visit certain places. This frequency is evaluated statistically and thus quantitatively by the Willcoxon method in a comparison with the control and with the standard.
In vitro Test; Test Animal: Boophilus microplus Biarra (Larvae)
The test is carried out as described above, with ca. 60 to 100 larvae being added per well.

[2] = test system: Rhipicephalus sanguineus (nymphs); test: Arena test for vermin-repellent substances, Example C; conditions: in vitro arena test, ca. 40 to 50 nymphs; for duration of repellent/deterrent action compared with DEET: DEET as standard; for repellent/deterrent action: evaluation of video images
Method: as §1, §2
In vitro Test; Test Animal: Rhipicephalus sanguineus (Nymphs)
The test is carried out analogously to example B, with ca. 40 to 50 nymphs.

[3] = test system: Amblyomma hebraeum or variegatum (nymphs); test: Arena test for vermin-repellent substances, Example B; conditions: in vitro arena test, ca. 25 nymphs per well; for duration of repellent/deterrent action compared with DEET: DEET as standard; for repellent/deterrent action: evaluation of video images
Method: as §1, §2
In vitro Test; Test Animal: Amblyomma hebraeum or variegatum (Nymphs)
The test is carried out as described above, with ca. 25 nymphs being added per well.

| Structure (SMILES) | duration of repellent/deterrent action compared with DEET [1] | repellent/deterrent action [1] | duration of repellent/deterrent action compared with DEET [2] | repellent/deterrent action [2] | duration of repellent/deterrent action compared with DEET [3] | repellent/deterrent action [3] |
| --- | --- | --- | --- | --- | --- | --- |
| COc1cc2nc(C)sc2cc1OC [5,6-dimethoxy-2-methylbenzothiazole] | lasts considerably longer than that of DEET | almost complete repellent/deterrent action | lasts considerably longer than that of DEET | almost complete repellent/deterrent action | lasts considerably longer than that of DEET | almost complete repellent/deterrent action |
| Cc1nc2cc(N)ccc2s1 [5-amino-2-methylbenzothiazole] | lasts considerably longer than that of DEET | almost complete repellent/deterrent action | lasts considerably longer than that of DEET | almost complete repellent/deterrent action | lasts considerably longer than that of DEET | almost complete repellent/deterrent action |
